The source of these data is patent US12012392B2, “Sulfonamide carboxamide compounds” (Inflazome Limited, priority 2017, dated 2024).

A word on the IC50: it is the concentration needed to halve the response being measured. The term AUC denotes the area under the concentration-time curve, a measure of exposure. Low readings indicate less exposure, high ones more exposure. A word on the half-life: it is how long it takes for the measured level to halve. A higher half-life goes with slow decline. A word on the CL/F: it is the apparent clearance, not corrected for the fraction that reaches the circulation. Broadly, the Cmax is the peak of the concentration-time curve. The Tmax is the time from dosing to the highest level. As usually defined, the bioavailability is the share of a dose that reaches the circulation, judged against a reference dose that is usually intravenous.

One data set deals with NLRP3 inflammasome. The settings on record: limited potency, nonspecific; cited from earlier work.
Data set [1] deals with T1, NLRP3 (Homo sapiens, UniProt Q96P20). The data set can be described thus: THP-1 cells pyroptosis assay. The data set is classed as cell-based. The arrangement: Seed THP-1 cells (25,000 cells/well) containing 1.0 μg/ml LPS; host or cells: THP-1 cells, LPS-primed, nigericin-stimulated. The settings on record: LPS 1 μg/ml, nigericin 5 μM, resazurin read-out. In short, it runs like this: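 THP-1 cells (25,000/well) primed with 1 μg/ml LPS in serum-free RPMI, given compound (8-point half-log, 10 μM top, 0.1% DMSO) for 3 hrs, then nigericin 5 μM for 1 hr at 37° C. Viability of remaining cells read by resazurin (100 μM, 1–2 hrs) fluorescence; IC50 from 4-parameter fit.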

Data set [2] can be described thus: PK protocol (intravenous and oral administration). Conditions: male, Sprague Dawley, plasma, rat; for Vd: read-out: Vdss. The format is in vivo, male Sprague Dawley rats.
Data set [3] concerns the target T1, NLRP3. The data set can be described thus: Human whole blood IL1β release assay. The format is cell-based. Conditions: LPS 1 μg/ml, nigericin 10 μM, IL-1β AlphaLisa, read-out: HWB IC50. The arrangement: Plate out 80 μl of whole blood containing 1 μg/ml of LPS; from tissue; host or cells: human whole blood from healthy donors, LPS-primed, nigericin-stimulated. The method, boiled down: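 Donor Li-heparin whole blood with 1 μg/ml LPS preincubated 3 h at 37 °C with compound (8-point half-log series, 10 μM top; 0.1% DMSO). Nigericin (10 μM final) added for 1 h, then supernatant IL-1β measured by AlphaLISA. IC50 from 4-parameter variable-slope fit.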
In general terms: Alpha assays give light when donor and acceptor beads are brought close together.

Molecules are shown by their SMILES. Like-named read-outs stand apart in the source and are kept apart here.

T1 sequence (Q96P20 whole entry): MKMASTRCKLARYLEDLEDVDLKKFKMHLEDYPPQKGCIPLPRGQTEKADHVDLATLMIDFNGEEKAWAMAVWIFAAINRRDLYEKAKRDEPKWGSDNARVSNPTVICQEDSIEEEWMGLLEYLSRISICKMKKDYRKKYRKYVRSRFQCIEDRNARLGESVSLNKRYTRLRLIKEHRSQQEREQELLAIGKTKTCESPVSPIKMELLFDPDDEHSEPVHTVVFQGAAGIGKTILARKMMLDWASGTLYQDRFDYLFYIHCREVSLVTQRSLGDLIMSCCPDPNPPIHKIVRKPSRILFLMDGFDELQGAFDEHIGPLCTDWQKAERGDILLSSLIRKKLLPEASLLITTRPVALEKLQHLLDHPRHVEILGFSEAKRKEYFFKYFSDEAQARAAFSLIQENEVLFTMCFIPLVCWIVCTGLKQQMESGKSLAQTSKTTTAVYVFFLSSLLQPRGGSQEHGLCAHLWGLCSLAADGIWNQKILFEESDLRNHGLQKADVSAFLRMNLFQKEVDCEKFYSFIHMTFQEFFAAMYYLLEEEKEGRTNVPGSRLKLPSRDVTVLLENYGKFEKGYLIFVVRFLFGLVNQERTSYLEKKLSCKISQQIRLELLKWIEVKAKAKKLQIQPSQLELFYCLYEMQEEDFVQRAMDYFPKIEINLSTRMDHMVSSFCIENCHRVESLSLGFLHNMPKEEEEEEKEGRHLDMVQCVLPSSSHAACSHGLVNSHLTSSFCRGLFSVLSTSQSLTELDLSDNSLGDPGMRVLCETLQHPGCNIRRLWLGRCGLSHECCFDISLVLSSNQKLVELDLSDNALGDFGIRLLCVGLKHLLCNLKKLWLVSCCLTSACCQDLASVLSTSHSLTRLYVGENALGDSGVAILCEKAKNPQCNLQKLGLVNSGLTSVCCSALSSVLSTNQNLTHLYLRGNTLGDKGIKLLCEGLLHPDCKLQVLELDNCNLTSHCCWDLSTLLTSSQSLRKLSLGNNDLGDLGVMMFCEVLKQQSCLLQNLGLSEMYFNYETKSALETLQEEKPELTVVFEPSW

Regarding `O=[N+]([O-])C=Cc1ccc2c(c1)OCO2` [3,4-methylenedioxy-β-nitrostyrene], in the data set on NLRP3 inflammasome, the “NLRP3 inhibition (potency in words)” value is “weak”.
For `C[C@H](O)Cn1ccc(S(=O)(=O)NC(=O)Nc2c3c(cc4c2CCC4)CCC3)n1` [Example 11, (S)—N-((1,2,3,5,6,7-Hexahydro-s-indacen-4-yl)carbamoyl)-1-(2-hydroxypropyl)-1H-pyrazole-3-sulfonamide], on NLRP3 [1], the IC50 lay within 40 to 160 nM. In data set [2] (intravenous, dose 1 mg/kg), the AUC is 7380 ng·h/mL, the clearance came to 2.3 mL/min/kg, the half-life was 2.9 h and the Vd was 0.36 L/kg. The IC50 on NLRP3 [3] was less than 400 nM.
`C[C@H](CO)n1ccc(S(=O)(=O)NC(=O)Nc2c3c(cc4c2CCC4)CCC3)n1` [Example 13, (R)—N-((1,2,3,5,6,7-Hexahydro-s-indacen-4-yl)carbamoyl)-1-(1-hydroxypropan-2-yl)-1H-pyrazole-3-sulfonamide]: the IC50 at NLRP3 [1] lay in the range of 160 to 640 nM. Also, in data set [2] (intravenous, dose 1 mg/kg), the exposure (AUC) worked out at 38700 ng·h/mL, the clearance turned out to be 0.4 mL/min/kg, the half-life was 3.6 h and the Vd was 0.09 L/kg. The IC50 at NLRP3 [3] was less than 400 nM.
On to `C[C@@H](O)Cn1ccc(S(=O)(=O)NC(=O)Nc2c3c(cc4c2CCC4)CCC3)n1` [Example 16, (R)—N-((1,2,3,5,6,7-Hexahydro-s-indacen-4-yl)carbamoyl)-1-(2-hydroxypropyl)-1H-pyrazole-3-sulfonamide], for which the IC50 on NLRP3 [1] is 40 to 160 nM. In data set [2] (intravenous, dose 1 mg/kg), the AUC was found to be 10200 ng·h/mL, the clearance stood at 1.8 mL/min/kg, the half-life was 3.8 h and the Vd turned out to be 0.41 L/kg. For the same molecule, in data set [2] (oral, dose 3 mg/kg), the AUC came out at 19600 ng·h/mL, the CL/F was found to be 2.6 mL/min/kg, the Cmax amounted to 3960 ng/mL and the Tmax was found to be 0.83 h. In data set [2] (oral, dose 3 mg/kg), this molecule had a bioavailability of 63.8% and a half-life of 3.2 h. Moreover, the IC50 on NLRP3 [3] lay within 400 to 800 nM.
Consider `O=C(Nc1c2c(cc3c1CCC3)CCC2)NS(=O)(=O)c1ccn(C2(CO)CCC2)n1` [Example 24, N-((1,2,3,5,6,7-Hexahydro-s-indacen-4-yl)carbamoyl)-1-(1-(hydroxymethyl)cyclobutyl)-1H-pyrazole-3-sulfonamide], for which, at NLRP3 [1], the IC50 fell in the range of 40 to 160 nM. For the same molecule, in data set [2] (intravenous, dose 1 mg/kg), the AUC was determined as 7030 ng·h/mL, the clearance is 2.4 mL/min/kg, the half-life was 3.5 h and the Vd was 0.37 L/kg. Besides, the IC50 at NLRP3 [3] was less than 400 nM.
In the case of `COC1(c2cc(S(=O)(=O)NC(=O)Nc3c4c(cc5c3CCC5)CCC4)nn2C2CC2)COC1` [Example 38, 1-Cyclopropyl-N-((1,2,3,5,6,7-hexahydro-s-indacen-4-yl)carbamoyl)-5-(3-methoxyoxetan-3-yl)-1H-pyrazole-3-sulfonamide], the IC50 at NLRP3 [1] was less than 40 nM. Besides, in data set [2] (intravenous, dose 1 mg/kg), the AUC came out at 3880 ng·h/mL, the clearance came to 4.6 mL/min/kg, the half-life is 1.1 h and the Vd came out at 0.35 L/kg. The IC50 on NLRP3 [3] is less than 400 nM.
As to `COC1(c2cc(S(=O)(=O)NC(=O)Nc3c4c(cc5c3CCC5)CCC4)nn2C(C)C)COC1` [Example 42, N-((1,2,3,5,6,7-Hexahydro-s-indacen-4-yl)carbamoyl)-1-isopropyl-5-(3-methoxyoxetan-3-yl)-1H-pyrazole-3-sulfonamide], the IC50 on NLRP3 [1] is less than 40 nM. In addition, in data set [2] (intravenous, dose 1 mg/kg), the AUC was 2960 ng·h/mL, the clearance worked out at 5.6 mL/min/kg, the half-life is 0.7 h and the Vd is 0.24 L/kg. Moreover, the IC50 at NLRP3 [3] was less than 400 nM.
Regarding `CCn1nc(S(=O)(=O)NC(=O)Nc2c3c(cc4c2CCC4)CCC3)cc1C1(OC)COC1` [Example 45, 1-Ethyl-N-((1,2,3,5,6,7-hexahydro-s-indacen-4-yl)carbamoyl)-5-(3-methoxyoxetan-3-yl)-1H-pyrazole-3-sulfonamide], on NLRP3 [1], the IC50 was less than 40 nM. Besides, in data set [2] (intravenous, dose 2.99 mg/kg), the AUC is 2320 ng·h/mL, the clearance turned out to be 21.6 mL/min/kg, the half-life was 0.8 h and the Vd was determined as 1.11 L/kg. Also, the IC50 at NLRP3 [3] was less than 400 nM.
As for `CCn1nc(S(=O)(=O)NC(=O)Nc2c3c(cc4c2CCC4)CCC3)cc1C1(O)COC1` [Example 46, 1-Ethyl-N-((1,2,3,5,6,7-hexahydro-s-indacen-4-yl)carbamoyl)-5-(3-hydroxyoxetan-3-yl)-1H-pyrazole-3-sulfonamide], the IC50 on NLRP3 [1] is less than 40 nM. In data set [2] (intravenous, dose 1.42 mg/kg), the AUC is 2380 ng·h/mL, the clearance was determined as 10 mL/min/kg, the half-life was 1.6 h and the Vd was determined as 0.56 L/kg. For the same molecule, the IC50 on NLRP3 [3] was less than 400 nM.
Consider `COC1(c2cc(S(=O)(=O)NC(=O)Nc3c4c(cc5c3CCC5)CCC4)nn2C)CCOC1` (stereo not shown) [Example 48, N-((1,2,3,5,6,7-Hexahydro-s-indacen-4-yl)carbamoyl)-5-(3-methoxytetrahydrofuran-3-yl)-1-methyl-1H-pyrazole-3-sulfonamide], for which, on NLRP3 [1], the IC50 is less than 40 nM. In data set [2] (intravenous, dose 1 mg/kg), the AUC was 948 ng·h/mL, the clearance was 17.6 mL/min/kg, the half-life was 2.9 h and the Vd is 1.74 L/kg. The IC50 at NLRP3 [3] was less than 400 nM.
For `Cn1nc(S(=O)(=O)NC(=O)Nc2c3c(cc4c2CCC4)CCC3)cc1C1(O)COC1` [Example 51, N-((1,2,3,5,6,7-Hexahydro-s-indacen-4-yl)carbamoyl)-5-(3-hydroxyoxetan-3-yl)-1-methyl-1H-pyrazole-3-sulfonamide], the IC50 at NLRP3 [1] was 40 to 160 nM. In data set [2] (intravenous, dose 1 mg/kg), the exposure (AUC) came out at 1860 ng·h/mL, the clearance amounted to 9 mL/min/kg, the half-life is 6.6 h and the Vd was 1.18 L/kg. Moreover, the IC50 on NLRP3 [3] is less than 400 nM.
Regarding `COC1(c2cc(S(=O)(=O)NC(=O)Nc3c4c(cc5c3CCC5)CCC4)nn2C)COC1` [Example 53, N-((1,2,3,5,6,7-Hexahydro-s-indacen-4-yl)carbamoyl)-5-(3-methoxyoxetan-3-yl)-1-methyl-1H-pyrazole-3-sulfonamide], at NLRP3 [1], the IC50 is less than 40 nM. Further, in data set [2] (intravenous, dose 1 mg/kg), the AUC was found to be 1280 ng·h/mL, the clearance turned out to be 13.3 mL/min/kg, the half-life is 11.5 h and the Vd came out at 3.48 L/kg. Further, at NLRP3 [3], the IC50 is less than 400 nM.
On to `COCCN(CCOC)C(=O)c1cc(S(=O)(=O)NC(=O)Nc2c3c(cc4c2CCC4)CCC3)nn1C` [Example 72, 3-(N-((1,2,3,5,6,7-Hexahydro-s-indacen-4-yl)carbamoyl)sulfamoyl)-N,N-bis(2-methoxyethyl)-1-methyl-1H-pyrazole-5-carboxamide], for which the IC50 on NLRP3 [1] was in the range of 40 to 160 nM. In data set [2] (intravenous, dose 2.88 mg/kg), the AUC stood at 330 ng·h/mL, the clearance was 149 mL/min/kg, the half-life is 0.2 h and the Vd came to 1.84 L/kg. The IC50 on NLRP3 [3] lay within 400 to 800 nM.
With `COCCN(C)C(=O)c1cc(S(=O)(=O)NC(=O)Nc2c3c(cc4c2CCC4)CCC3)nn1C` [Example 73, 3-(N-((1,2,3,5,6,7-Hexahydro-s-indacen-4-yl)carbamoyl)sulfamoyl)-N-(2-methoxyethyl)-N,1-dimethyl-1H-pyrazole-5-carboxamide], the IC50 at NLRP3 [1] fell in the range of 40 to 160 nM. In data set [2] (intravenous, dose 1 mg/kg), the AUC was 1160 ng·h/mL, the clearance is 14.4 mL/min/kg, the half-life is 2.9 h and the Vd was 2.24 L/kg. Further, in data set [2] (oral, dose 3 mg/kg), the AUC worked out at 2420 ng·h/mL and the Cmax was determined as 701 ng/mL. Besides, at NLRP3 [3], the IC50 fell in the range of 400 to 800 nM.
Consider `C[S+](C)[O-]` [dimethyl sulfoxide (DMSO), dimethyl sulfoxide], for which, in the data set on NLRP3 inflammasome, the “NLRP3 inhibition (potency in words)” value is “weak”.
